According to US11559527B2 (priority 2017, dated 2023):

Tests used:
Format in all cases: cell-based, Human
MCF7 breast cancer cells = test: Tumorsphere formation assay, MCF7; details: five days, vs vehicle
Method: One of the gold standard techniques for the study and identification of CSCs is the sphere formation assay, an in vitro culture system that enriches for CSCs. Under these anchorage-independent culture conditions, CSCs preferentially form the so-called tumorspheres, whereas more differentiated cells die rapidly.
TUMORSPHERE FORMATION ASSAY: A single cell suspension was prepared using enzymatic (1× Trypsin-EDTA, T3924, Sigma Aldrich), and manual disaggregation (25 gauge needle). […] After 5 days of culture in a humidified incubator at 37° C., tumorspheres bigger than 50 μm were counted using an eye piece graticule.

TGFβ signaling = test: Luciferase reporter assay MCF7-GFP-SMAD(luc); details: 50 μM, 2 and 5 days
Text: (§1) Mitochondrial fusion and fission may also have an impact in signaling pathways that regulate stem cell proliferation and survival. […] A range of reporter MCF7-GFP cell lines were generated, including MCF7-GFP-GLI(luc), MCF7-GFP-Rbp/Jk(luc), MCF7-GFP-SMAD(luc) and MCF7-GFP-TCF/LEF(luc), to assess Hedgehog signaling, Notch signaling, TGFβ signaling, and Wnt signaling, respectively. […] The data is shown in the four data plots in FIG. 9.
(§2) LUCIFERASE ASSAY: The Cignal Lenti reporter assay (luc) was used to monitor the activity of several signalling pathways in MCF7-GFP cells as explained previously. Luciferase Assay System (E1501, Promega) was performed according to manufacturer's instructions. 1×10^4 MCF7 […] were seeded in black-walled 96 well plates. When cells were attached, drug treatments were added for 18, 48 hours and 5 days. After treatment, Luciferase Assay was performed according to manufacturer's instructions and light signal was acquired in the Xenogen VivoVision IVIS Lumina. Results were normalized by SRB staining of cells grown in 96-well plates in parallel.
(§3) SULFORHODAMINE B (SRB) ASSAY: SRB (S9012, Sigma) measures total biomass by staining cellular proteins. […] Absorbance was spectrophotometrically measured at 562 nm in a FluoStar Omega plate reader (BMG Labtech). […]

Notch signaling = test: Luciferase reporter assay MCF7-GFP-Rbp/Jk(luc); details: 50 μM, 2 and 5 days
Text: as §1, §2, §3

MCF7 cells [1] = test: Reactive oxygen species (CM-H2DCFDA, flow cytometry)
Text: Inhibition of the mitochondrial fission impacts on other mitochondrial processes, such as mitochondrial metabolism and general and mitochondrial oxidative stress. To confirm, MCF7 cells were stained with MitoSOX and CM-H2DCFDA, and mitochondrial superoxide and total ROS were quantified by flow cytometry. […] Whereas the increase in general ROS goes in line with the increase in mitochondrial content, the boost in the levels of mitochondrial superoxide in mDIV1-treated cells is actually bigger than the observed increased mitochondrial content.
LEVELS OF REACTIVE OXYGEN SPECIES AND MITOCHONDRIAL SUPEROXIDE: For both assays, 2×10^5 MCF7 cells were seeded in 35 mm plates. […] Reactive oxygen species (ROS) production was measured using CM-H2DCFDA (C6827, Invitrogen). Briefly, cells were incubated for 20 minutes at 37° C. with 1 μM CM-H2DCFDA diluted in PBS and then placed in complete media for 20 minutes at 37° C. in the dark, to render the dye fluorescent, according to the manufacturer. Mitochondrial superoxide was measured using MitoSOX Red Mitochondrial Superoxide Indicator (M36008, ThermoFisher Scientific). […] ROS signal and MitoSOX signal was quantified as mean fluorescent intensity of the viable cell population in a Fortessa flow cytometer (BD Bioscience). Results were analysed using FlowJo software.

MCF7 cells [2] = test: Mitochondrial mass quantification by flow cytometry (MitoTracker Deep Red); details: 50 μM, 5 days, relative to vehicle
Text: In order to assess whether the inhibition of DRP1 was actually being translated into a reduction in mitochondrial fission, the inventors stained the mitochondria of MCF7 cells with Mitotracker Deep Red, which is a marker of mitochondrial mass. […] The original images are black background with shades of red over the cells, whereas the images in FIG. 3 have been color-inverted and generated in grey scale. Mitochondrial mass was also quantified by flow cytometry. FIGS. 4A-4C show results of mitochondrial mass quantification. In FIG. 4A, Mitotracker Deep Red mean intensity relative to vehicle intensity is shown for 2-day and 5-day treatments.
MITOCHONDRIAL MASS QUANTIFICATION: To measure mitochondrial mass, cells were stained with MitoTracker Deep Red (M22426, Invitrogen). Briefly, 2×10^5 […] cells per well were seeded in 6-well plates. […] Cells were then incubated for 15 min at 37° C. with the 10 nM Mitotracker Deep Red probe diluted in PBS (D8662, Sigma). All subsequent steps were performed in the dark. Cells were washed in PBS, harvested, and resuspended in PBS. Mitotracker signal was quantified as mean fluorescent intensity of the viable cell population in a Fortessa flow cytometer (BD Bioscience). Results were analyzed using FlowJo software.

MCF7 cells [3] = test: DAPI staining (viable cells in suspension; binucleated cells)
Method: The second chart in FIG. 10B sets forth the results. […] One possible explanation to that observed behavior is that they are becoming more quiescent. […] Such phenomenon is typical of anti-mitotic drugs.
The surviving fraction after 2 days and 5 days of growth was analyzed by FACS. MCF7 cells were either trypsinised or spun down and trypsinised and incubated with CD24 (IOTest CD24-PE, Beckman Coulter) and CD44 (APC mouse anti-human CD44, 559942, BD Pharmingen) for 15 minutes on ice. Cells were then rinsed twice in PBS, spun down, and resuspended with DAPI dye (D1306, Molecular probes) at 3 μM in PBS for 10 minutes. Samples were then analyzed by FACS (Fortessa, BD Bioscence). Only the live cell population, identified using the DAPI staining, was analyzed for CD24/CD44 expression. Data were analyzed using FlowJo software.

COc1cc(-n2c(S)nc3ccccc3c2=O)c(Cl)cc1Cl [mDIVI-1, 3-(2,4-Dichloro-5-methoxyphenyl)-2-sulfanyl-4(3H)-quinazolinone] was tested, and the “decrease of tumorsphere number” value (MCF7 breast cancer cells; MCF7, 10 μM) was 50%, the “decrease of tumorsphere number” value (MCF7 breast cancer cells; MCF7, 50 μM) was 80% and the “decrease of tumorsphere number” value (MCF7 breast cancer cells; MCF7, 100 μM) was 95%. For the same compound, the “TGFβ/SMAD pathway luciferase activity” value (TGFβ signaling) was “inhibition”, the “Notch/Rbp pathway luciferase activity” value (Notch signaling) was “inhibition” and the “production of total ROS” value (MCF7 cells [1]; 5 days of treatment) was “slight trend toward an increase”. For the same compound, the “general oxidative stress levels” value (MCF7 cells [1]; after exposure to mDIVI-1) was “did not change”, the “Mitotracker Deep Red mean fluorescence intensity (mitochondrial mass)” value (MCF7 cells [2]) was “significantly higher” and the “binucleated cells (failure of cytokinesis)” value (MCF7 cells [3]; 50 μM, data not shown) was “increase”. For the same compound, the “cell viability (DAPI) vs vehicle-treated cells” value (MCF7 cells [3]; anchorage-independent conditions) was “no significant differences”.
